Ten compounds from US20260092071A1, “COMPOUNDS AND COMPOSITIONS AS SMARCA2/4 DEGRADERS AND USES THEREOF” (REGENTS OF THE UNIVERSITY OF MICHIGAN, priority 2022, published 2026) can be followed below.

Test [1] has as its target SMARCA4 (Homo sapiens, UniProt P51532). Put plainly: HiBiT assay for protein degradation, Hela SMARCA4-HiBiT cells (A series). To be noted: for DC50: read-out: SMARC A4 Hela HiBit DC50. The format is cell-based. Set-up: fuse HiBiT to the carboxy terminus of SMARCA2 (Promega CS302365) or SMARCA4 (Promega CS3023225); host or cells: HeLa (CRISPR/Cas9 HiBiT knock-in). A digest of the protocol:
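SMARCA4 degradation was measured in HeLa cells in which HiBiT had been knocked into the SMARCA4 carboxy terminus via CRISPR/Cas9 (Promega CS3023225). Cells were maintained in DMEM with FBS and penicillin-streptomycin. At the end of treatment, SMARCA4 levels were read by lytic HiBiT luminescence (Nano-Glo®, Promega N3050), and data were analyzed with GraphPad Prism.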
For orientation: HiBiT is a short tag that completes a luciferase, so light tracks the accessible tagged protein.

For test [2], the target named is SMARCA2 (Homo sapiens, UniProt P51531). The test can be described thus: HiBiT assay for protein degradation, Hela SMARCA2-HiBiT cells (A series).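 On SMARC A2 Hela HiBit Dmax (%): 24 h compound treatment.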 Format: cell-based. Set-up: Hela cells were genetically modified via CRISPR/Cas9 to fuse HiBiT to the carboxy terminus of SMARCA2; host or cells: HeLa (CRISPR/Cas9 HiBiT knock-in). Particulars: for DC50: read-out: SMARC A2 Hela HiBit DC50; for Dmax: read-out: SMARC A2 Hela HiBit Dmax (%). The gist of the method:
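SMARCA2 degradation was measured in HeLa cells whose endogenous SMARCA2 carries a carboxy-terminal HiBiT tag introduced by CRISPR/Cas9 (Promega CS302365). Cells were maintained in DMEM with FBS and penicillin-streptomycin. SMARCA2 levels were read at the end of the experiment by Nano-Glo® HiBiT lytic luminescence (Promega N3050) and analyzed in GraphPad Prism.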

[3] abbreviates: Hela SMARCA4-HiBiT cells, 24 hours treatment.
The mark [4] stands for this setting: Hela SMARCA4-HiBiT cells, 24 hours treatment, read-out: SMARC A4 Hela HiBit Dmax.
[5] abbreviates: Hela SMARCA2-HiBiT cells, 24 hours treatment.
The mark [6] stands for this setting: Hela SMARCA4-HiBiT cells, 24 hours treatment, read-out: SMARC A4 Hela HiBit Dmax(%).

The term DC50 denotes the concentration giving 50% degradation. Usually Dmax stands for the greatest extent of degradation seen.

Like-named read-outs stand apart in the source and are kept apart here. Where only a bound is given, the exact number is not on record here.

SMARCA4, sequence (P51532 whole entry): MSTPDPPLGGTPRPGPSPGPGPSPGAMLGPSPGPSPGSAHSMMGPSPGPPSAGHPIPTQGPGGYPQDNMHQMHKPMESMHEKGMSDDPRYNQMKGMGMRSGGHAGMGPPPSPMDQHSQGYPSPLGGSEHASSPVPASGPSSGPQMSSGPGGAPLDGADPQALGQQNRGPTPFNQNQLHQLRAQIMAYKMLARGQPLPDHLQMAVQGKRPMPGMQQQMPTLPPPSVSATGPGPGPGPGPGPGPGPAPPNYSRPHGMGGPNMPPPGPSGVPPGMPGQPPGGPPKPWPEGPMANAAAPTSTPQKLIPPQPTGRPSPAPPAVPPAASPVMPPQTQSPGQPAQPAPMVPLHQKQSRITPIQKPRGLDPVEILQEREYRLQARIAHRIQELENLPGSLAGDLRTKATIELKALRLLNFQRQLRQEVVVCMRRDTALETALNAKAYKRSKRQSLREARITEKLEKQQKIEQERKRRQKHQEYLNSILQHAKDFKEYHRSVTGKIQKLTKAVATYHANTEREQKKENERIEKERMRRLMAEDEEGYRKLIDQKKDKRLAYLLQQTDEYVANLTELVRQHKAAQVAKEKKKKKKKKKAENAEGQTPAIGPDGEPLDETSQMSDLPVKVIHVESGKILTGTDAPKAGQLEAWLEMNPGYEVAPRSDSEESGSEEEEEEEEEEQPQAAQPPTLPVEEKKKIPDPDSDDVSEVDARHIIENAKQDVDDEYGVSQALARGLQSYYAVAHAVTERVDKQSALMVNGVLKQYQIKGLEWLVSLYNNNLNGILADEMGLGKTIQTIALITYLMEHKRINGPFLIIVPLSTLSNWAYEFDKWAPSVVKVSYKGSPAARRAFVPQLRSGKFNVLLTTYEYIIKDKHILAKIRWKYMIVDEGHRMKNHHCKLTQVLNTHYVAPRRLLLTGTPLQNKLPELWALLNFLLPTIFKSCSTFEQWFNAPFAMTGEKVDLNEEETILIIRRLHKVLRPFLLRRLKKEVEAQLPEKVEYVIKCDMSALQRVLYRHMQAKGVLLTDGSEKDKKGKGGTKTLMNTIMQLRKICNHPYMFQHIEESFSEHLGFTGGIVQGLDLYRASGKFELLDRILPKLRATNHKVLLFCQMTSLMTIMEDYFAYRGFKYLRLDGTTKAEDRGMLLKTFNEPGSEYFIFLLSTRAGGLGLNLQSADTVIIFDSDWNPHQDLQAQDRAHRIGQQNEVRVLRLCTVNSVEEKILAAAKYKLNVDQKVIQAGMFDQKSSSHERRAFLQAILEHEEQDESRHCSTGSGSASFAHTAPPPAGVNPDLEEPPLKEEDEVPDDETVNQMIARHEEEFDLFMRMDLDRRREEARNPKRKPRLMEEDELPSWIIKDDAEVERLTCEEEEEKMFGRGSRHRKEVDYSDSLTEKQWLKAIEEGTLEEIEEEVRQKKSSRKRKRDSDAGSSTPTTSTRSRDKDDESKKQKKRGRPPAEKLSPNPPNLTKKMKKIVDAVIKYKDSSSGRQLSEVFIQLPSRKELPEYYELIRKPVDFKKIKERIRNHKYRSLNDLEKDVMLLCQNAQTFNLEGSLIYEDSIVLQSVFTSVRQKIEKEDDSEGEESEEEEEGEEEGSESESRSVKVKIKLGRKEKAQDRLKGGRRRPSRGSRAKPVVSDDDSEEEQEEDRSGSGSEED
SMARCA2, sequence (P51531 whole entry): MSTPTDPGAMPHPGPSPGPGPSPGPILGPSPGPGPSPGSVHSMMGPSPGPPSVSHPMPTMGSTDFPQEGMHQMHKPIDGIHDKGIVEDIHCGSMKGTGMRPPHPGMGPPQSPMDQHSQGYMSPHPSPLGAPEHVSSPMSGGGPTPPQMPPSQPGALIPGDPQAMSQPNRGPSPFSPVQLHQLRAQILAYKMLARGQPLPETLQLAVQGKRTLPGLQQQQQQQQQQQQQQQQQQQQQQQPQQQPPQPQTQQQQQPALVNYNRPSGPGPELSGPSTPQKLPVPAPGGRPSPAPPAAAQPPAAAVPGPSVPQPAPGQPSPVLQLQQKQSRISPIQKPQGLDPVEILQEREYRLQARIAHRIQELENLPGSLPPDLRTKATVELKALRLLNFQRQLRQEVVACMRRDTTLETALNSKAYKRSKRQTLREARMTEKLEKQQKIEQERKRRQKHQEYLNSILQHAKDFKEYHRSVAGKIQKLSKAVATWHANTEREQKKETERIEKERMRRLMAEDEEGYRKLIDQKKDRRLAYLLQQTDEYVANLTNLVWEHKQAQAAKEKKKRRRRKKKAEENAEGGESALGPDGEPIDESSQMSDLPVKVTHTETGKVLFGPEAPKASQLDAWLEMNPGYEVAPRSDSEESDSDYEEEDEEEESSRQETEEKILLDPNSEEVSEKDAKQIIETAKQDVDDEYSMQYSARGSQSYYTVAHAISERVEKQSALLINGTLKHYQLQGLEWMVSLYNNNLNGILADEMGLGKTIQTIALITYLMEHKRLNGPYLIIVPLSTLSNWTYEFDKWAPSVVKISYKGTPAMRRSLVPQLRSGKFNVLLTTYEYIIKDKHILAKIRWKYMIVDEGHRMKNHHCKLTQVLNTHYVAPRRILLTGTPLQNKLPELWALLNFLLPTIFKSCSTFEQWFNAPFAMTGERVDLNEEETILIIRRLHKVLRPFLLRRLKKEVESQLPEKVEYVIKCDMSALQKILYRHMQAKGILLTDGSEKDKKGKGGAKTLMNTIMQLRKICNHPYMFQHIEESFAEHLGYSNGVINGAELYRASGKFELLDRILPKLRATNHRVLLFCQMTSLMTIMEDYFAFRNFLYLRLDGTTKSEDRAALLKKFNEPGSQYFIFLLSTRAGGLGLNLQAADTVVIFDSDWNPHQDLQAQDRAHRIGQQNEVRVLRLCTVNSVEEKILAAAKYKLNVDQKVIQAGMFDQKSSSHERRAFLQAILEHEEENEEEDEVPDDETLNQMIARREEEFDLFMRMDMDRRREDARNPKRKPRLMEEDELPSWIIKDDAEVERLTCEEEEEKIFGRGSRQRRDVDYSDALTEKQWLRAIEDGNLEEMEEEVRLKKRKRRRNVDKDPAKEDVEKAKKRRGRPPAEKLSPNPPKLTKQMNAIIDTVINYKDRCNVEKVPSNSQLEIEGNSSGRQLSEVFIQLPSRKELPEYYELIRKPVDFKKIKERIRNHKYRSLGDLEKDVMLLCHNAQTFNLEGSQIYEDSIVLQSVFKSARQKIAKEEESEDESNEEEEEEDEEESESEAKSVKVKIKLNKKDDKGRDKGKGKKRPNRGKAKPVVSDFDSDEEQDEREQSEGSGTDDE

Consider `CC(C)(C)[C@@H](C(=O)N1C[C@H](O)C[C@H]1C(=O)N[C@@H](CN1CCOCC1)c1ccc(-c2cccnc2)cc1)n1cc([C@H]2CC[C@H](CN3CCC(c4ccc5c(c4)-n4c(nc(=O)c6c(Cl)cccc64)C54CCCCC4)CC3)CC2)nn1` [Compound A171, (2S,4R)-1-((S)-2-(4-((1r,4S)-4-((4-(4′-chloro-5′-oxo-5′H-spiro[cyclohexane-1,7′-indolo[1,2-a]quinazolin]-10′-yl)piperidin-1-yl)methyl)cyclohexyl)-1H-1,2,3-triazol-1-yl)-3,3-dimethylbutanoyl)-4-hydroxy-N—((R)-2-morpholino-1-(4-(pyridin-3-yl)phenyl)ethyl)pyrrolidine-2-carboxamide], for which the DC50 in test [1] (setting [3]) is 100 to 1000 nM; in test [2] (setting [5]) it was less than 10 nM. In addition, the results for the Dmax in test [1] (setting [4]) and in test [2] (setting [5]) were 50 to 69% and more than 90%, respectively.

As for `Cc1ncsc1-c1ccc([C@@H](NC(=O)[C@@H]2C[C@@H](O)CN2C(=O)[C@@H](n2cc(C3CC3)nn2)C(C)(C)C)C(=O)N2CCC(CN3CCC(c4ccc5c(c4)-n4c(nc(=O)c6c(Br)cccc64)C54CCCCC4)CC3)CC2)cc1` [Compound A136, (2S,4R)—N—((R)-2-(4-((4-(4′-bromo-5′-oxo-5′H-spiro[cyclohexane-1,7′-indolo[1,2-a]quinazolin]-10′-yl)piperidin-1-yl)methyl)piperidin-1-yl)-1-(4-(4-methylthiazol-5-yl)phenyl)-2-oxoethyl)-1-((S)-2-(4-cyclopropyl-1H-1,2,3-triazol-1-yl)-3,3-dimethylbutanoyl)-4-hydroxypyrrolidine-2-carboxamide], the DC50 in test [1] (setting [3]) and in test [2] (setting [5]) was less than 10 nM each time. The Dmax in test [1] (setting [4]) and in test [2] (setting [5]) was more than 90% throughout.

For `Cc1ncsc1-c1ccc([C@H](CCCCCN2CCC(c3ccc4c(c3)-n3c(nc(=O)c5c(Br)cccc53)C43CCCCC3)CC2)NC(=O)[C@H]2C[C@H](O)CN2C(=O)[C@@H](n2cc(C3CC3)nn2)C(C)(C)C)cc1` [Compound A36, (2R,4S)—N—((S)-6-(4-(4′-bromo-5′-oxo-5′H-spiro[cyclohexane-1,7′-indolo[1,2-a]quinazolin]-10′-yl)piperidin-1-yl)-1-(4-(4-methylthiazol-5-yl)phenyl)hexyl)-1-((S)-2-(4-cyclopropyl-1H-1,2,3-triazol-1-yl)-3,3-dimethylbutanoyl)-4-hydroxypyrrolidine-2-carboxamide], the DC50 in test [1] (setting [3]) and in test [2] (setting [5]) was less than 100 nM each time. Further, the Dmax in test [1] (setting [6]) and in test [2] (setting [5]) was more than 90% throughout.

As to `Cc1ncsc1-c1ccc([C@H](CC(=O)N(C)C)NC(=O)[C@@H]2C[C@@H](O)CN2C(=O)[C@@H](n2cc([C@H]3CC[C@H](CN4CCC(c5ccc6c(c5)-n5c(nc(=O)c7c(Cl)cccc75)C65CCCCC5)CC4)CC3)nn2)C(C)(C)C)cc1` [Compound A147, (2S,4R)-1-((S)-2-(4-((1r,4S)-4-((4-(4′-chloro-5′-oxo-5′H-spiro[cyclohexane-1,7′-indolo[1,2-a]quinazolin]-10′-yl)piperidin-1-yl)methyl)cyclohexyl)-1H-1,2,3-triazol-1-yl)-3,3-dimethylbutanoyl)-N—((S)-3-(dimethylamino)-1-(4-(4-methylthiazol-5-yl)phenyl)-3-oxopropyl)-4-hydroxypyrrolidine-2-carboxamide], the figures for the DC50 in test [1] (setting [3]) and in test [2] (setting [5]) were more than 1000 nM and less than 10 nM, respectively. Also, the results for the Dmax in test [1] (setting [4]) and in test [2] (setting [5]) were 50 to 69% and more than 90%, respectively.

As to `Cc1ncsc1-c1ccc([C@H](C)NC(=O)[C@@H]2C[C@@H](O)CN2C(=O)[C@@H](NC(=O)CCCCCN2CCC(c3ccc4c(c3)C3(CCCCC3)c3nc(=O)c5c(Cl)cccc5n3-4)CC2)C(C)(C)C)cc1` [Compound A9, (2S,4R)-1-((S)-2-(6-(4-(4′-chloro-5′-oxo-5′H-spiro[cyclohexane-1,7′-indolo[1,2-a]quinazolin]-9′-yl)piperidin-1-yl)hexanamido)-3,3-dimethylbutanoyl)-4-hydroxy-N—((S)-1-(4-(4-methylthiazol-5-yl)phenyl)ethyl) pyrrolidine-2-carboxamide], the Dmax in test [1] (HeLa, read-out: SMARC A4 Hela HiBit Dmax(%)) was 50 to 69%; in test [2] (HeLa), more than 90%. Further, the figures for the DC50 in test [1] (setting [3]) and in test [2] (setting [5]) were 501 to 1000 nM and less than 100 nM, respectively.

Turning to `Cc1ncsc1-c1ccc([C@H](CN2CC(C)(F)C2)NC(=O)[C@@H]2C[C@@H](O)CN2C(=O)[C@@H](n2cc([C@H]3CC[C@H](CN4CCC(c5ccc6c(c5)-n5c(nc(=O)c7c(Cl)cccc75)C65CCCCC5)CC4)CC3)nn2)C(C)(C)C)cc1` [Compound A74, (2S,4R)-1-((S)-2-(4-((1r,4S)-4-((4-(4′-chloro-5′-oxo-5′H-spiro[cyclohexane-1,7′-indolo[1,2-a]quinazolin]-10′-yl)piperidin-1-yl)methyl)cyclohexyl)-1H-1,2,3-triazol-1-yl)-3,3-dimethylbutanoyl)-N—((R)-2-(3-fluoro-3-methylazetidin-1-yl)-1-(4-(4-methylthiazol-5-yl)phenyl)ethyl)-4-hydroxypyrrolidine-2-carboxamide], the figures for the DC50 in test [1] (setting [3]) and in test [2] (setting [5]) were more than 1000 nM and less than 100 nM, respectively. For the same compound, the Dmax in test [1] (setting [6]) was 50 to 69%; in test [2] (setting [5]), more than 90%.

As for `Cc1ncsc1-c1ccc([C@H](CN2CCOCC2)NC(=O)[C@@H]2C[C@@H](O)CN2C(=O)[C@H](C2CCCCC2)n2cc([C@H]3CC[C@H](CN4CCC(c5ccc6c(c5)-n5c(nc(=O)c7c(Br)cccc75)C65CCCCC5)CC4)CC3)nn2)cc1` [Compound A123, (2S,4R)-1-((S)-2-(4-((1r,4S)-4-((4-(4′-bromo-5′-oxo-5′H-spiro[cyclohexane-1,7′-indolo[1,2-a]quinazolin]-10′-yl)piperidin-1-yl)methyl)cyclohexyl)-1H-1,2,3-triazol-1-yl)-2-cyclohexylacetyl)-4-hydroxy-N—((R)-1-(4-(4-methylthiazol-5-yl)phenyl)-2-morpholinoethyl)pyrrolidine-2-carboxamide], the DC50 in test [1] (setting [3]) was 10 to 100 nM; in test [2] (setting [5]) it was less than 10 nM. Besides, the Dmax is 70 to 90% in test [1] (setting [4]) and more than 90% in test [2] (setting [5]).

Consider `Cc1ncsc1-c1ccc([C@H](Cn2cc([C@H]3CC[C@H](CN4CCC(c5ccc6c(c5)C5(CCCCC5)c5nc(=O)c7c(Br)cccc7n5-6)CC4)CC3)nn2)NC(=O)[C@@H]2C[C@@H](O)CN2C(=O)[C@@H](NC(=O)C2(F)CC2)C(C)(C)C)cc1` [Compound A33, (2S,4R)—N—((R)-2-(4-((1r,4R)-4-((4-(4′-bromo-5′-010-5′H-spiro[cyclohexane-1,7′-indolo[1,2-a]quinazolin]-9′-yl)piperidin-1-yl)methyl)cyclohexyl)-1H-1,2,3-triazol-1-yl)-1-(4-(4-methylthiazol-5-yl)phenyl)ethyl)-1-((S)-2-(1-fluorocyclopropane-1-carboxamido)-3,3-dimethylbutanoyl)-4-hydroxypyrrolidine-2-carboxamide], for which the DC50 was 100 to 500 nM in test [1] (setting [3]) and less than 100 nM in test [2] (setting [5]). Also, the results for the Dmax in test [1] (setting [6]) and in test [2] (setting [5]) were 70 to 90% and more than 90%, respectively.

Consider `Cc1ncsc1-c1ccc([C@H](C)NC(=O)[C@@H]2C[C@@H](O)CN2C(=O)[C@@H](NC(=O)CN2CCC(c3ccc4c(c3)-n3c(nc(=O)c5c(Cl)cccc53)C43CCCCC3)CC2)C(C)(C)C)cc1` [Compound A39, (2S,4R)-1-((S)-2-(2-(4-(4′-chloro-5′-oxo-5′H-spiro[cyclohexane-1,7′-indolo[1,2-a]quinazolin]-10′-yl)piperidin-1-yl)acetamido)-3,3-dimethylbutanoyl)-4-hydroxy-N—((S)-1-(4-(4-methylthiazol-5-yl)phenyl)ethyl)pyrrolidine-2-carboxamide], for which the DC50 in test [1] (setting [3]) and in test [2] (setting [5]) was less than 100 nM throughout. Besides, the Dmax in test [1] (setting [6]) and in test [2] (setting [5]) was more than 90% throughout.

For the compound `Cc1ncsc1-c1ccc([C@H](C)NC(=O)[C@@H]2C[C@@H](O)CN2C(=O)[C@H](C2CCN(C(=O)[C@H]3CC[C@H](CN4CCC(c5ccc6c(c5)-n5c(nc(=O)c7c(Cl)cccc75)C65CCCCC5)CC4)CC3)CC2)n2cc(C3CC3)nn2)cc1` [Compound A108, (2S,4R)-1-((S)-2-(1-((1r,4S)-4-((4-(4′-chloro-5′-oxo-5′H-spiro[cyclohexane-1,7′-indolo[1,2-a]quinazolin]-10′-yl)piperidin-1-yl)methyl)cyclohexane-1-carbonyl)piperidin-4-yl)-2-(4-cyclopropyl-1H-1,2,3-triazol-1-yl)acetyl)-4-hydroxy-N—((S)-1-(4-(4-methylthiazol-5-yl)phenyl)ethyl)pyrrolidine-2-carboxamide], the figures for the DC50 in test [1] (setting [3]) and in test [2] (setting [5]) were more than 1000 nM and less than 10 nM, respectively. Moreover, the Dmax in test [1] (setting [4]) was less than 50%; in test [2] (setting [5]) it was 70 to 90%.
